The record followed here is patent US6727237B2, “Inhibitors of bacterial NAD synthetase” (priority 1998, dated 2004).

The first experiment has as its target T1, bacterial NAD synthetase enzyme (Bacillus subtilis, UniProt P08164).
T1 sequence (P08164 2-272 limits assumed): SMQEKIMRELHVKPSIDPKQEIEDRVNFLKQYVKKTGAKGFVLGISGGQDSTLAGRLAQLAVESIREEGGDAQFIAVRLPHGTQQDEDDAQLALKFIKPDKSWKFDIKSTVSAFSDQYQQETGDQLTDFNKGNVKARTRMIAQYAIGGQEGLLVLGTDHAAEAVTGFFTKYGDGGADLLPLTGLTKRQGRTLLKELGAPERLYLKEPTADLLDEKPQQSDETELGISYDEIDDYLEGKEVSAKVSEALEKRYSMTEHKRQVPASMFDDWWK
Briefly: biochemical. The class given is biochemical.
Details: not given
By IC50 is commonly meant the midpoint of a concentration-inhibition curve. Broadly, the inhibition is the relative decrease from the control value, in per cent. In turn, `C[n+]1cccc(C(=O)OCCCOc2ccc(C(=O)c3ccccc3)cc2)c1` [Compound 1068] registered an IC50 of 62.5 µM and an inhibition at 200 µM of 92%.

In turn, `CN(C)c1ccc(CC(=O)OCCCCCCCCOc2ccccc2C(N)=O)cc1` [Compound 1031] gave an IC50 of 36.3 µM and an inhibition at 200 µM of 23%.

`C[N+](C)(C)c1ccc(CC(=O)OCCCCCCCCOc2ccccc2C(N)=O)cc1` [Compound 1080] displayed an IC50 of 100 µM and an inhibition at 200 µM of 83%.

Consider `CC(C)c1ccc2[nH]c(CCCCCCCCOC(=O)c3cc[n+](C)cc3)cc2c1` [Compound 906], for which the IC50 is 25 µM.

Consider `C[N+](C)(C)c1ccc(CC(=O)OCCCCCCCCOc2ccc(Oc3ccccc3)cc2)cc1` [Compound 1090], for which inhibition was half-maximal at 21.2 µM (IC50) and at 200 µM the inhibition was 96%.

Consider `C[N+](C)(C)c1cccc(C(=O)OCCCCCCCCc2cc3cc(C(=O)c4ccccc4)ccc3[nH]2)c1` [Compound 882], for which the IC50 stood at 90 µM and the inhibition at 100 µM came out at 94.5%.

Turning to `C[n+]1cccc(C(=O)OCCCOc2ccccc2C=CC(=O)c2ccccc2)c1` [compound 1066], 200 µM produced 70% inhibition.

`CC(=O)c1ccc2[nH]c(CCCCCCCCOC(=O)c3ccc[n+](C)c3)cc2c1` [Compound 924] yielded an IC50 of 25 µM and an inhibition at 100 µM of 97.7%.

The compound `C[N+](C)(C)c1ccc(CC(=O)OCCCCCCCCOc2ccccc2C(=O)Nc2ccccc2)cc1` [Compound 1074] gave an IC50 of 30 µM and an inhibition at 200 µM of 91%.

The compound `CC(C)c1ccc2[nH]c(CCCCCCCCOC(=O)c3ccc[n+](C)c3)cc2c1` [Compound 921] yielded an IC50 of 25 µM and an inhibition at 100 µM of 96.7%.

The compound `C[n+]1cccc(C(=O)OCCCCCCCc2cc3cc(Oc4ccccc4)ccc3[nH]2)c1` [Compound 917] gave an IC50 of 60 µM and an inhibition at 250 µM of 88.9%.

The compound `C[N+](C)(C)c1ccc(CC(=O)OCCCCCCCCOc2ccccc2C=CC(=O)c2ccccc2)cc1` [Compound 1086] showed an IC50 of 27.5 µM and an inhibition at 200 µM of 81%.

Take `COc1ccccc1OCCCCCCCCOC(=O)Cc1ccc([N+](C)(C)C)cc1` [Compound 1087]: the IC50 was 40 µM and the inhibition at 200 µM worked out at 61%.

Still in this experiment, the particulars now being: NAD synthetase enzyme inhibition; read-out: IC50 of Compounds.
Turning to `C[N+](C)(C)c1ccc(CC(=O)OCCCCCCCCOc2ccccc2[N+](=O)[O-])cc1` [Compound 1075], the IC50 is 65 µM.

The same experiment, now with this note: compound at 0.1 mM (Table 314).
For orientation: % Inhibition means the share of the control response that was lost under treatment. High values mean a strong effect, low ones a weak effect. In the case of `FC(F)(F)c1ccc2cc(CCCCC[n+]3ccccc3)[nH]c2c1` [Compound 290], the “% Inhibition” value is 12.89%.

`CC(C)c1ccc2[nH]c(CCCCC[n+]3ccccc3)cc2c1` [Compound 320]: the “% Inhibition” value is reported as 44.72%.

Turning to `COC(=O)c1ccc2[nH]c(CCCC[n+]3cccc4ccccc43)cc2c1` [Compound 487], the “% Inhibition” value is recorded as 9.88%.

`COC(=O)c1cc2cc(OCc3ccccc3)ccc2n1CCCCCCCCCOC(=O)c1ccc[n+](C)c1` [Compound 978]: the “% Inhibition” value is 80.31%.

As to `CC(C)c1ccc2[nH]c(CCCC[n+]3ccccc3)cc2c1` [Compound 319], the “% Inhibition” value amounted to 16.99%.

Consider `O=C(OCCCCCCn1ccc2ccccc21)c1cccnc1` [Compound 943], for which the “% Inhibition” value was 21.38%.

With `O=C(O)/C=C/c1cn(CCCC[n+]2cccc3ccccc32)c2ccccc12` [Compound 154], the “% Inhibition” value was found to be 9.24%.

With `c1ccc(C(c2ccccc2)(c2ccccc2)c2ccc3[nH]c(CCC[n+]4ccccc4)cc3c2)cc1` [Compound 336], the “% Inhibition” value was 18.02%.

Staying with this experiment, now noted: compound at 0.2 mM (Table 312A).
On to `CC(=O)c1ccc2[nH]c(CCC[n+]3cccc4ccccc43)cc2c1` [Compound 474], for which the “% Inhibition” value is on record as 2.45%.

As for `CC(C)c1ccc2[nH]c(CCCC[n+]3ccc4ccccc4c3)cc2c1` [Compound 535], the “% Inhibition” value is recorded as 12.61%.

With `c1ccc(C(c2ccccc2)(c2ccccc2)c2ccc3[nH]c(CCCCCCC[n+]4cccc5ccccc54)cc3c2)cc1` [Compound 448], the “% Inhibition” value was 2.92%.

`Fc1ccc2[nH]c(CCCC[n+]3ccc4ccccc4c3)cc2c1` [Compound 559]: the “% Inhibition” value stood at 33.24%.

With `COC(=O)C=Cc1cn(CCCCC[n+]2cccc(C(=O)OC)c2)c2ccccc12` [Compound 268], the “% Inhibition” value was 11.23%.

For `COC(=O)c1ccc2[nH]c(CCCC[n+]3ccc4ccccc4c3)cc2c1` [Compound 595], the “% Inhibition” value amounted to 17.94%.

In the case of `CCCCc1ccc2[nH]c(CCCCCCCC[n+]3cccc4ccccc43)cc2c1` [Compound 425], the “% Inhibition” value came to 19.12%.

`CC(C)c1ccc2[nH]c(CCCCCCC[n+]3ccccc3)cc2c1` [Compound 322]: the “% Inhibition” value was 14.40%.

Turning to `CC(=O)c1ccc2[nH]c(CCC[n+]3ccc4ccccc4c3)cc2c1` [Compound 582], the “% Inhibition” value is on record as 6.13%.

In the case of `c1ccc(-c2ccc3[nH]c(CCC[n+]4ccccc4)cc3c2)cc1` [Compound 324], the “% Inhibition” value is listed as 34.99%.

Regarding `COC(=O)c1ccc2[nH]c(CCC[n+]3ccc4ccccc4c3)cc2c1` [Compound 594], the “% Inhibition” value was determined as 2.77%.

As for `FC(F)(F)c1ccc2cc(CCCCCCCC[n+]3ccccc3)[nH]c2c1` [Compound 293], the “% Inhibition” value was found to be 87.66%.

With `COc1ccc2c(ccn2CCCCCOC(=O)c2ccc[n+](C)c2)c1` [Compound 761], the “% Inhibition” value was 6.88%.

With `O=[N+]([O-])c1cc([N+](=O)[O-])c2[nH]c(CCCCCCCC[n+]3ccccc3)cc2c1` [Compound 311], the “% Inhibition” value is on record as 29.67%.

For `O=[N+]([O-])c1cc([N+](=O)[O-])c2[nH]c(CCCCC[n+]3ccccc3)cc2c1` [Compound 308], the “% Inhibition” value is listed as 33.71%.

In the case of `COC(=O)c1ccc2[nH]c(CCCC[n+]3ccccc3)cc2c1` [Compound 379], the “% Inhibition” value was 6.27%.

As to `Fc1cc(F)c2[nH]c(CCCCCCC[n+]3ccc4ccccc4c3)cc2c1` [Compound 520], the “% Inhibition” value is recorded as 55.83%.

Regarding `Cc1ccc2[nH]c(CCCCCCCC[n+]3cccc4ccccc43)cc2c1` [Compound 407], the “% Inhibition” value turned out to be 24.14%.

On to `CN(C)c1ccc(C(=O)OCCCCCCCc2cc3cc(Oc4ccccc4)ccc3[nH]2)cc1` [Compound 619], for which the “% Inhibition” value was found to be 19.53%.

Regarding `COC(=O)c1ccc2[nH]c(CCCCCCCC[n+]3ccccc3)cc2c1` [Compound 383], the “% Inhibition” value was found to be 2.76%.

Turning to `O=C(O)c1ccc2[nH]c(CCCCCCCC[n+]3ccccc3)cc2c1` [Compound 389], the “% Inhibition” value was determined as 12.44%.

For `CCCCc1ccc2[nH]c(CCC[n+]3cccc4ccccc43)cc2c1` [Compound 420], the “% Inhibition” value is recorded as 9.16%.

On to `FC(F)(F)c1ccc2[nH]c(CCC[n+]3ccc4ccccc4c3)cc2c1` [Compound 576], for which the “% Inhibition” value worked out at 2.05%.

Turning to `CCCCc1ccc2[nH]c(CCCCCCCC[n+]3ccc4ccccc4c3)cc2c1` [Compound 533], the “% Inhibition” value is 24.68%.

Turning to `CCCCc1ccc2[nH]c(CCCC[n+]3cccc4ccccc43)cc2c1` [Compound 421], the “% Inhibition” value is on record as 1.86%.

With `COc1ccc2[nH]c(CCC[n+]3ccc4ccccc4c3)cc2c1` [Compound 588], the “% Inhibition” value came out at 2.49%.

Regarding `O=[N+]([O-])c1ccc2[nH]c(CCCCCC[n+]3cccc4ccccc43)cc2c1` [Compound 441], the “% Inhibition” value is listed as 11.80%.

As to `O=[N+]([O-])c1cc([N+](=O)[O-])c2[nH]c(CCCC[n+]3ccccc3)cc2c1` [Compound 307], the “% Inhibition” value worked out at 4.40%.

As for `CC(=O)c1ccc2[nH]c(CCCCCCC[n+]3cccc4ccccc43)cc2c1` [Compound 478], the “% Inhibition” value amounted to 9.76%.

For `Fc1cc(F)c2[nH]c(CCC[n+]3ccc4ccccc4c3)cc2c1` [Compound 516], the “% Inhibition” value is reported as 29.95%.

The same experiment, now with this note: compound at 0.2 mM (Table 312B).
Turning to `C[n+]1cccc(C(=O)OCCCCCCCCOc2cccc(OC(=O)c3ccccc3)c2)c1` [compound 1059], the “% Inhibition” value came out at 85%.

On to `C[N+](C)(C)c1ccc(CC(=O)OCCCCCCCCOc2ccc(C(=O)c3ccccc3)cc2)cc1` [Compound 1088], for which the “% Inhibition” value turned out to be 100%.

For the compound `C[n+]1cccc(C(=O)OCCCCCCCCOc2ccc(OC(=O)c3ccccc3)cc2)c1` [compound 1062], the “% Inhibition” value is 18%.

Consider `C[n+]1cccc(C(=O)OCCCCCCCCOc2ccc(C=CC(=O)c3ccccc3)cc2)c1` [compound 1063], for which the “% Inhibition” value turned out to be 32%.

As for `CC(=O)C=Cc1ccc(OCCCCCCCCOC(=O)c2ccc[n+](C)c2)cc1` [compound 1061], the “% Inhibition” value is recorded as 61%.

With `CC(=O)c1ccccc1OCCCCCCCCOC(=O)c1ccc[n+](C)c1` [compound 1056], the “% Inhibition” value worked out at 18%.

For the compound `O=C(OCCCCCCCCOc1cccc(N2CCOCC2)c1)c1cccnc1` [Compound 1018], the “% Inhibition” value is recorded as 17%.

Regarding `C[N+](C)(C)c1ccc(CC(=O)OCCCCCCCCOc2ccccc2[N+](=O)[O-])cc1` [Compound 1075], the “% Inhibition” value worked out at 79%.

As to `CN(C)c1ccc(CC(=O)OCCCCCCCCOc2ccc(C(=O)c3ccccc3)cc2)cc1` [Compound 1040], the “% Inhibition” value is 3%.

As to `C[N+](C)(C)c1ccc(CC(=O)OCCCCCCCCOc2ccc([N+](=O)[O-])cc2)cc1` [Compound 1073], the “% Inhibition” value worked out at 78%.

Still in this experiment, the particulars now being: compound at 0.25 mM.
Regarding `CC(=O)c1ccc2[nH]c(CCCCOC(=O)c3ccc([N+](C)(C)C)cc3)cc2c1` [Compound 892], the “% Inhibition” value is recorded as 97.7%.

Take `C[n+]1cccc(CC(=O)OCCCCCCCCc2cc3ccc(C(F)(F)F)cc3[nH]2)c1` [Compound 930]: the “% Inhibition” value is 96.7%.

Consider `CC(=O)c1ccc2[nH]c(CCCCOC(=O)c3cc[n+](C)cc3)cc2c1` [Compound 907], for which the “% Inhibition” value was found to be 20.6%.

As for `C[N+](C)(C)c1cccc(C(=O)OCCCCc2cc3cc(C(=O)c4ccccc4)ccc3[nH]2)c1` [Compound 880], the “% Inhibition” value worked out at 96.7%.
